Experimental data reported in publication PMC9616412, “Nebulized fusion inhibitory peptide protects cynomolgus macaques from measles virus infection” (Nature Communications, 2022).

Settings: 74 MBq in 3 ml NaCl 0.9%, mesh nebulizer; Mean +/- SD of four experiments
Description: Following European recommendations, 2 five-year-old healthy female cynomolgus macaques, 3–4 kg, were housed under conventional conditions in the animal facility. […] Animals were acclimatized to laboratory conditions and trained to breathe an aerosol with a facemask spontaneously. Aerosol generated from 3 ml of 0.9% NaCl mixed with 74 MBq of DTPA radiolabeled with technetium 99 m (^99mTc-DTPA) was administered through a facemask connected to the prototype mesh nebulizers, as used in MeV infection experiments (Fig. 2a). Deposition of aerosol was extrapolated based on the ^99mTc-DTPA signal measured at the end of the nebulization using a gamma camera (Orbiter 75 Ecam, Siemens healthcare, Erlangen, Germany)[69]. The nebulizer charge was measured by counting the radioactivity in the syringe (that contained ^99mTc-DTPA) before and after loading the nebulizers. Immediately after aerosol delivery, the animals were imaged using the gamma camera. The post-anterior static scintigraphy acquisition was performed for 120 s. The amount of ^99mTc-DTPA deposited into airways and stomach and remaining in the nebulizer was determined from the digitalized images taking into account the tissue attenuation coefficients, previously determined by perfusion scintigraphy (intravenous injection of ^99mTc-macroagregates of albumin). The organ body outline was specified using a specific Region Of Interest (ROI), and the lungs were delineated using the perfusion scan ROI. The aerosol dose delivered to different organs of NHPs is reported as a percentage of the nominal dose placed in the nebulizer for that given experiment, taking into account the decay of technetium for all measurements.

## O=C([O-])CN(CCN(CC(=O)[O-])CC(=O)[O-])CCN(CC(=O)[O-])CC(=O)[O-].[99Tc+4] [99mTC-DTPA, DTPA radiolabeled with technetium 99 m]
  Deposition in macaque, Esophagus / trachea: 3.4 +/- 4.2%
  Deposition in macaque, Lungs: 11.4 +/- 3.1%
  Deposition in macaque, Stomach: 11.9 +/-9.2%
  Deposition in macaque, Upper respiratory Tract: 29.5 +/- 11.9%
